According to article PMC7313537 (PLoS ONE, 2020):

Key:
[1] = molecular target: RPS6KB1 (Homo sapiens, UniProt P23443); assay: Enzyme selectivity panel; assay type: biochemical; conditions: 1 mM ATP
Description: (§2) The kinase assays were carried out at room temperature in HEPES 50 mM, pH 7.0, NaN3 0.02%, BSA 0.01%, Orthovanadate 0.1 mM, DTT 1 mM, MgCl2 10 mM in a final volume of 10 µL. Test compounds were transferred to the plate wells by ECHO liquid handler (Labcyte, San Jose, CA) with 0.5% dimethyl sulfoxide (DMSO) in the final assay. Peptide/kinase mixtures were diluted in the appropriate enzymatic buffer and 5µL of the mixture was added to a 384-well small volume black plate. Reactions were initiated by the addition of 5 µL ATP in reaction buffer, the final reaction mixture consisted of 500 nM peptide substrate, 1 mM ATP, and appropriate amount of specific kinase. […] The plates were then sealed and centrifuged at 1800 rpm for 2 minutes. […] Half maximal inhibitory concentration (IC50) determination was performed by fitting the curve of percent control activity versus the log of the compound concentration using the GraphPad Prism 6.0 software.

[2] = molecular target: MAP3K8 (Homo sapiens, UniProt P41279); assay: Enzyme selectivity panel; assay type: biochemical; conditions: 1 mM ATP
Description: as §2

[3] = molecular target: TIE2 (Homo sapiens, UniProt Q02763); assay: Enzyme selectivity panel; assay type: biochemical; conditions: 1 mM ATP
Description: as §2

[4] = molecular target: AKT1 (Homo sapiens, UniProt P31749); assay: Enzyme selectivity panel; assay type: biochemical; conditions: 1 mM ATP
Sequence of AKT1 (P31749 whole entry, species assumed): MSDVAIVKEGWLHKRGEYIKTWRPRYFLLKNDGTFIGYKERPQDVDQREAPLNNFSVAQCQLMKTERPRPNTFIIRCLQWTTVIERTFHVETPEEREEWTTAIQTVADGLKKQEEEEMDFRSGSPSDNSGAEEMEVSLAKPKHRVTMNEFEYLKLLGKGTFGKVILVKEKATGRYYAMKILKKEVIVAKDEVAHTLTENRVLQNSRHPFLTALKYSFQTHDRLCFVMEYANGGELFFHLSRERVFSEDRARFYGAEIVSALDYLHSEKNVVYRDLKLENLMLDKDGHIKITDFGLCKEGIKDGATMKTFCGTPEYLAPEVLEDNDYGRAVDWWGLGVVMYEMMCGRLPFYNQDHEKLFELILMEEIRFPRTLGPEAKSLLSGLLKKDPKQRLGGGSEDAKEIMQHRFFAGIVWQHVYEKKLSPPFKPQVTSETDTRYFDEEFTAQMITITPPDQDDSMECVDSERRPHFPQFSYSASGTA
Description: as §2

[5] = tested on: HEK293; assay: Cell viability assay (CellTiter-Glo); assay type: cell-based; conditions: Homo sapiens, Embyronic kidney, lacking FGFR alterations
[6] = molecular target: T1, CYP2B6 (Homo sapiens, UniProt P20813); assay: CYP inhibition; assay type: in vitro ADME; conditions: human liver microsomes
T1 construct: from tissue; host or cells: human liver microsomes
T1 sequence (P20813 whole entry): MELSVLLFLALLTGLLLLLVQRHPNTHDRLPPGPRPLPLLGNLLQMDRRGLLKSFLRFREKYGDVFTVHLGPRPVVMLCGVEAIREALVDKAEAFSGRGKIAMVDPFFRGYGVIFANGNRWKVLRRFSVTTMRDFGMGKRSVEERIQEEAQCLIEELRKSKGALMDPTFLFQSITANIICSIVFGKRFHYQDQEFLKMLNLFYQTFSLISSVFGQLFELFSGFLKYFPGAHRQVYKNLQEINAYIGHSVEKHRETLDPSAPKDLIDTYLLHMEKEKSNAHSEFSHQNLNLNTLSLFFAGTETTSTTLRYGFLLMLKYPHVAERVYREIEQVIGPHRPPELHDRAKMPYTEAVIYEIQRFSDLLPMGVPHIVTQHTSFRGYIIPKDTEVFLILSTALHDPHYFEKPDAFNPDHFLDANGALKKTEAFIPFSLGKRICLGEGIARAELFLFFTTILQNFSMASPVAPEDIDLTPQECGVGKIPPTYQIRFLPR
Description: (§1) In addition, the known selective inhibitors of CYP1A2 (α-naphthoflavone), CYP2B6 (ticlopidine), CYP2C8 (quercetin), CYP2C9 (sulfaphenazole), CYP2C19 (tranylcypromine), CYP2D6 (quinidine), and CYP3A4 (ketoconazole) were included as positive controls. […] Samples were vortexed and centrifuged, and the resulting supernatants were analyzed using LC-MS/MS.

[7] = molecular target: T2, CYP3A4 (Homo sapiens, UniProt P08684); assay: CYP inhibition; assay type: in vitro ADME; conditions: human liver microsomes
T2 construct: from tissue; host or cells: human liver microsomes
T2 sequence (P08684 whole entry): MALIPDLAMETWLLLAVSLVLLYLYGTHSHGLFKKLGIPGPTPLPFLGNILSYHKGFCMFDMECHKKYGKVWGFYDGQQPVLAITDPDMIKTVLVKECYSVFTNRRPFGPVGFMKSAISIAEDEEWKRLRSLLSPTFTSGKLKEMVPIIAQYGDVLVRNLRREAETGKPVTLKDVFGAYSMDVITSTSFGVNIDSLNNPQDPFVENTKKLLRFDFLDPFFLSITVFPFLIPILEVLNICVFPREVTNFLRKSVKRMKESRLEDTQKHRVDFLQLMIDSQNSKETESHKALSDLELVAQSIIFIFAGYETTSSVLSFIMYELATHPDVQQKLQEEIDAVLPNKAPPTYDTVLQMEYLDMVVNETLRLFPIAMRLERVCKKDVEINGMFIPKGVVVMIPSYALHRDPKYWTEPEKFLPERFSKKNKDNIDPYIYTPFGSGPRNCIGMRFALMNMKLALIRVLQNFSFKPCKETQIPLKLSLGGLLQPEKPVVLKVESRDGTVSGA
Description: as §1

[8] = molecular target: T3, CYP1A2 (Homo sapiens, UniProt P05177); assay: CYP inhibition; assay type: in vitro ADME; conditions: human liver microsomes
T3 construct: from tissue; host or cells: human liver microsomes
T3 sequence (P05177 whole entry): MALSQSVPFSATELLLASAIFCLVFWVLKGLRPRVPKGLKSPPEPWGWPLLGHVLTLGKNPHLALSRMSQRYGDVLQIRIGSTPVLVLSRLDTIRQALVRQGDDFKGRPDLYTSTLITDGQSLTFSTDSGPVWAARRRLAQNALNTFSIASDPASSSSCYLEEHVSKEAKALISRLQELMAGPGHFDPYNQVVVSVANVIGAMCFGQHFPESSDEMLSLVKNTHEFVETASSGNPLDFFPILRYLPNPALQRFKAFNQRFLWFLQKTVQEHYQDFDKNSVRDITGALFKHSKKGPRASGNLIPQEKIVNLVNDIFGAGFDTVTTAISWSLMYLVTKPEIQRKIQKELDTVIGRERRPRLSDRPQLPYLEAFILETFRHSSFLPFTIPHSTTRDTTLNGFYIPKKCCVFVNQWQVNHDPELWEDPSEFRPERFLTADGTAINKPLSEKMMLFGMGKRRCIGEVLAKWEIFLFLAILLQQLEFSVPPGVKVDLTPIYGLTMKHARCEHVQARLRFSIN
Description: as §1

[9] = molecular target: T4, CYP2D6 (Homo sapiens, UniProt P10635); assay: CYP inhibition; assay type: in vitro ADME; conditions: human liver microsomes
T4 construct: from tissue; host or cells: human liver microsomes
T4 sequence (P10635 whole entry): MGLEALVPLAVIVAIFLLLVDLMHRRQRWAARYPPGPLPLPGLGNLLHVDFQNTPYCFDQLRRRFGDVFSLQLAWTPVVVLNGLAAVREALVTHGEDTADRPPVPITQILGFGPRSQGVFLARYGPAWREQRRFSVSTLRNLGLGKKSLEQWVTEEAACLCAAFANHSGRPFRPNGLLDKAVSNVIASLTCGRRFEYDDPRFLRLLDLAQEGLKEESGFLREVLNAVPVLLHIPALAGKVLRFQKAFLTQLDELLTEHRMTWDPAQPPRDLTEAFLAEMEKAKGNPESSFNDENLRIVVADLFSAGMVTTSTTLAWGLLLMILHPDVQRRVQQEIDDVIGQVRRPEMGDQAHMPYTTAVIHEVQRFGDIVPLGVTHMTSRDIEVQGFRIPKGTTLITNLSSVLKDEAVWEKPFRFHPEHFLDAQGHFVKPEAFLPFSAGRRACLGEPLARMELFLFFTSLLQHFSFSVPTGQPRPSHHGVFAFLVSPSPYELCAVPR
Description: as §1

[10] = molecular target: T5, CYP2C9 (Homo sapiens, UniProt P11712); assay: CYP inhibition; assay type: in vitro ADME; conditions: human liver microsomes
T5 construct: from tissue; host or cells: human liver microsomes
Description: as §1

[11] = molecular target: T6, CYP2C19 (Homo sapiens, UniProt P33261); assay: CYP inhibition; assay type: in vitro ADME; conditions: human liver microsomes
T6 construct: from tissue; host or cells: human liver microsomes
Description: as §1

[12] = molecular target: T7, CYP2C8 (Homo sapiens, UniProt P10632); assay: CYP inhibition; assay type: in vitro ADME; conditions: human liver microsomes
T7 construct: from tissue; host or cells: human liver microsomes
Description: as §1

[13] = molecular target: LCK (Homo sapiens, UniProt P06239); assay: Enzyme selectivity panel; assay type: biochemical; conditions: 1 mM ATP
Sequence of LCK (P06239 whole entry, species assumed): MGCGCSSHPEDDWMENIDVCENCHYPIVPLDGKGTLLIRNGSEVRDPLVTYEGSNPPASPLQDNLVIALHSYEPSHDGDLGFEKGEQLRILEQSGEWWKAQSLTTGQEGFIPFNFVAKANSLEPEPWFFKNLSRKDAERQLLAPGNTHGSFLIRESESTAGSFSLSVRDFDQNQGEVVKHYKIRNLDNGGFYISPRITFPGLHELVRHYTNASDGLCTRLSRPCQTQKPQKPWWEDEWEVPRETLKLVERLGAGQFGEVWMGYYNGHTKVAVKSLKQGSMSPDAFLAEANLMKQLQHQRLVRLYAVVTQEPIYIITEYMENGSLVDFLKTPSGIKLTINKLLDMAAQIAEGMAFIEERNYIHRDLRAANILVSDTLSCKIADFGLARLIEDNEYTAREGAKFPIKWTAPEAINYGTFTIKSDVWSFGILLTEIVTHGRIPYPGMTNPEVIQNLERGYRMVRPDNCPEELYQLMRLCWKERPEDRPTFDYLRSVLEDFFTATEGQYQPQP
Description: as §2

Sequence of TIE2 (Q02763 23-1124, species assumed): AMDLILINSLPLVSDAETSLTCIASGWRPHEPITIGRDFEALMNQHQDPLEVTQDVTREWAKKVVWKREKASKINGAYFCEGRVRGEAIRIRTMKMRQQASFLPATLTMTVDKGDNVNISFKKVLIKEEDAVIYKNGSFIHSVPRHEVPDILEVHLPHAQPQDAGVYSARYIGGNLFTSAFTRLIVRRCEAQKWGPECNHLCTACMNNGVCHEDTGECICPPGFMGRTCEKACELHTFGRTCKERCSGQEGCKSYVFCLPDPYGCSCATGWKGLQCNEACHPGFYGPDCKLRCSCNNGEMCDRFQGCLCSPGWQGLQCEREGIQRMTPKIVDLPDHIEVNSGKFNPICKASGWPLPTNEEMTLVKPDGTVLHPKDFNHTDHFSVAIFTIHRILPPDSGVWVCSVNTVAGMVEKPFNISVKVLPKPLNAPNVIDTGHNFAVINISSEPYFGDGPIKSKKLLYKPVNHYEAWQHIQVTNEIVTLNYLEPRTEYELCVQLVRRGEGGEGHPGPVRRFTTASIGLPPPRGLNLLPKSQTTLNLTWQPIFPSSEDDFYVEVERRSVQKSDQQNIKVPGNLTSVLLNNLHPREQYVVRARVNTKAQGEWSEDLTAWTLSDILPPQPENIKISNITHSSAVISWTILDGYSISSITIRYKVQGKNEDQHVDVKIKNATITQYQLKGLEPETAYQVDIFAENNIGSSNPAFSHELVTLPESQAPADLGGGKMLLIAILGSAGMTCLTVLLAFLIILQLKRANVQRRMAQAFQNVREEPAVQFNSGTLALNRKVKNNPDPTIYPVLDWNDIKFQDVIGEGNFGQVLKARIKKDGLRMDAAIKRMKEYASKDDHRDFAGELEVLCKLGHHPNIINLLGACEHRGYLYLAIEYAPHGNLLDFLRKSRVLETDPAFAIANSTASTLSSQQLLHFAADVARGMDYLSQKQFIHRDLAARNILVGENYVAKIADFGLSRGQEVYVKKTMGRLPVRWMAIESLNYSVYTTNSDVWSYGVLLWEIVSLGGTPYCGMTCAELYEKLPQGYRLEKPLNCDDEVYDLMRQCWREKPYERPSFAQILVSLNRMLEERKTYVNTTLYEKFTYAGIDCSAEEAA
Sequence of MAP3K8 (P41279 whole entry, species assumed): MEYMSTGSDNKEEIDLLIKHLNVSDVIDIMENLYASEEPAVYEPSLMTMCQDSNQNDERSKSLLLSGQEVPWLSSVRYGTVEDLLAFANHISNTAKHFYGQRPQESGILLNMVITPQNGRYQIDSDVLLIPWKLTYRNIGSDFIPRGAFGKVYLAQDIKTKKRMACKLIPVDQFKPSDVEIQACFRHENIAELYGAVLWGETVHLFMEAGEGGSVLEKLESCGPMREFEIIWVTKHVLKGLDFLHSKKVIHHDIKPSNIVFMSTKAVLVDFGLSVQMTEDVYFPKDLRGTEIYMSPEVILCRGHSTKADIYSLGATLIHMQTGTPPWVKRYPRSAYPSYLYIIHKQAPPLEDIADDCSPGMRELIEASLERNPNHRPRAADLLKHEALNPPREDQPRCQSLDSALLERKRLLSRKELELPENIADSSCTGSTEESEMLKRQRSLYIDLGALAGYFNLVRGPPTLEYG

CCN1C(=O)N(c2c(F)c(OC)cc(OC)c2F)Cc2cnc3[nH]c(CN4CCOCC4)cc3c21 [INCB054828, pemigatinib]
> 25 µM: IC50 [6] | IC50 [7] | IC50 [8] | IC50 [9] | IC50 [10] | IC50 [11] | IC50 [12]
> 20 µM: GI50 [5]
> 10 µM: IC50 [1] | IC50 [2] | IC50 [3] | IC50 [4] | IC50 [13]
